Assay results taken from PMC4138103 (PLoS ONE, 2014).
Where two headings read alike, the source gives them in different places.

Experiments:
Sprague-Dawley rats [1] = experiment: Serum steroids and gonadotropins; format: in vivo, Rattus norvegicus; conditions: for CED, Serum FSH / CED, Serum LH / CED-L, Serum FSH / CED-L, Serum LH: adipose tissue concentration based; for Emax: Rattus norvegicus; for Estradiol / LH / Progesterone / FSH / Testosterone: group mean; for Serum FSH, CED / Serum FSH, CED-L / Serum LH, CED / Serum LH, CED-L: total dose based
Method: Serum testosterone, estradiol and progesterone concentrations were measured by time-resolved immunofluorometric assay, DELFIA (PerkinElmer Life and Analytical Sciences, Turku, Finland) after diethyl ether (Merck KGaA, Darmstadt, Germany) extraction. Ether-extracted serum samples were reconstituted to DELFIA Diluent II buffer (PerkinElmer Life and Analytical Sciences, Turku, Finland) and used for analysis. The sensitivity of the assay was 100 pg/ml for testosterone, 13.6 pg/ml for estradiol and 250 pg/ml for progesterone. The intra- and interassay coefficients of variation (CV) were below 6 and 12%, respectively. To enhance the sensitivity, commercial tracer and antiserum were additionally diluted 5∶8 with assay buffer (PerkinElmer Life and Analytical Sciences, Turku, Finland) in testosterone assay. For estradiol and progesterone, dilution rate was 1∶2. Serum follicle stimulating hormone (FSH) and luteinizing hormone (LH) levels were determined from unextracted samples by DELFIA as described previously, [31].
Data were also analyzed using the BMD method, which is based on dose-response modeling of the full data set using a nested family of exponential and Hill models. The analyses were done on data of males and females combined, using sex as a covariate. […] In that case, different Critical Effect Doses (CEDs) and CEDs at the lowest bound of the confidence interval (CED-L) were generated for each sex. If no difference between sexes is detected, a CED and CED-Ls for the combined data is generated. However, this was also done if the curve fits are close, and separate analyses for males and females were then performed manually. CEDs and CED-Ls were calculated at the predefined Critical Effect Size (CES) of 5% (EFSA standard) or 10%.

Sprague-Dawley rats [2] = system: Sprague-Dawley rats; parameters: method as in Roos et al., 2011; conditions: group mean, ref Roos et al., 2011, cited from earlier work
[3] = females, total dose 10 mg/kg bw
[4] = females, total dose 30 mg/kg bw
[5] = females, total dose 100 mg/kg bw
[6] = females, total dose 300 mg/kg bw
[7] = females, total dose 1000 mg/kg bw
[8] = females, total dose 1700 mg/kg bw
[9] = males, total dose 1000 mg/kg bw
[10] = males, total dose 1700 mg/kg bw

With `Clc1cc(Cl)c(-c2cc(Cl)c(Cl)c(Cl)c2Cl)cc1Cl` [PCB 180, 2,2′,3′,4,4′,5,5′-heptachlorobiphenyl] the “CED, Serum FSH” value (Sprague-Dawley rats [1]; M, CES 5%, model E2) was 1600 µg/g lipid, the “CED, Serum LH” value (Sprague-Dawley rats [1]; M, CES 5%, model E2) was 1160 µg/g lipid and the “CED-L, Serum FSH” value (Sprague-Dawley rats [1]; M, CES 5%, model E2) was 1116 µg/g lipid. For the same molecule, the “CED-L, Serum LH” value (Sprague-Dawley rats [1]; M, CES 5%, model E2) was 648 µg/g lipid, the “CED, Serum FSH” value (Sprague-Dawley rats [1]; M, CES 10%, model E2) was 3290 µg/g lipid and the “CED, Serum LH” value (Sprague-Dawley rats [1]; M, CES 10%, model E2) was 2390 µg/g lipid. For the same molecule, the “CED-L, Serum FSH” value (Sprague-Dawley rats [1]; M, CES 10%, model E2) was 2292 µg/g lipid, the “CED-L, Serum LH” value (Sprague-Dawley rats [1]; M, CES 10%, model E2) was 1331 µg/g lipid and the Emax (Sprague-Dawley rats [1]; males, controls vs high dose, fitted model, read-out: Serum FSH, Maximum response) was -20.6%. It also gave an Emax (Sprague-Dawley rats [1]; males, controls vs high dose, fitted model, read-out: Serum LH, Maximum response) of -27.9%, an Emax (Sprague-Dawley rats [1]; M, model E2, controls vs high dose according to the fitted model, read-out: Maximum response, Serum FSH) of -21.1% and an Emax (Sprague-Dawley rats [1]; M, model E2, controls vs high dose according to the fitted model, read-out: Maximum response, Serum LH) of -27.8%. The Estradiol (Sprague-Dawley rats [1]; females, total dose 3 mg/kg bw) was 20.2 pg/mL, the LH (Sprague-Dawley rats [1]; females, total dose 3 mg/kg bw) was 1.51 ng/mL and the Progesterone (Sprague-Dawley rats [1]; females, total dose 3 mg/kg bw) was 37.1 ng/mL. The Estradiol (Sprague-Dawley rats [1]; [3]) was 23.6 pg/mL, the LH (Sprague-Dawley rats [1]; [3]) was 2.57 ng/mL and the Progesterone (Sprague-Dawley rats [1]; [3]) was 18.0 ng/mL. For the same molecule, the Estradiol (Sprague-Dawley rats [1]; [4]) was 18.8 pg/mL, the LH (Sprague-Dawley rats [1]; [4]) was 1.81 ng/mL and the Progesterone (Sprague-Dawley rats [1]; [4]) was 22.3 ng/mL. For the same molecule, the Estradiol (Sprague-Dawley rats [1]; [5]) was 21.4 pg/mL, the LH (Sprague-Dawley rats [1]; [5]) was 1.96 ng/mL and the Progesterone (Sprague-Dawley rats [1]; [5]) was 33.0 ng/mL. It also gave an Estradiol (Sprague-Dawley rats [1]; [6]) of 15.4 pg/mL, an LH (Sprague-Dawley rats [1]; [6]) of 2.02 ng/mL and a Progesterone (Sprague-Dawley rats [1]; [6]) of 27.5 ng/mL. For the same molecule, the Estradiol (Sprague-Dawley rats [1]; [7]) was 17.4 pg/mL, the LH (Sprague-Dawley rats [1]; [7]) was 1.39 ng/mL and the Progesterone (Sprague-Dawley rats [1]; [7]) was 27.7 ng/mL. For the same molecule, the Estradiol (Sprague-Dawley rats [1]; [8]) was 17.6 pg/mL, the LH (Sprague-Dawley rats [1]; [8]) was 1.77 ng/mL and the Progesterone (Sprague-Dawley rats [1]; [8]) was 22.7 ng/mL. For the same molecule, the “FSH, Dose response” value (Sprague-Dawley rats [1]; males) was “D, T”, the “LH, Dose response” value (Sprague-Dawley rats [1]; males) was “D, T” and the “Serum FSH, CED” value (Sprague-Dawley rats [1]; males, CES 5%) was 377 mg/kg bw. The “Serum FSH, CED-L” value (Sprague-Dawley rats [1]; males, CES 5%) was 263 mg/kg bw, the “Serum LH, CED” value (Sprague-Dawley rats [1]; males, CES 5%) was 266 mg/kg bw and the “Serum LH, CED-L” value (Sprague-Dawley rats [1]; males, CES 5%) was 150 mg/kg bw. The “Serum FSH, CED” value (Sprague-Dawley rats [1]; males, CES 10%) was 775 mg/kg bw, the “Serum FSH, CED-L” value (Sprague-Dawley rats [1]; males, CES 10%) was 540 mg/kg bw and the “Serum LH, CED” value (Sprague-Dawley rats [1]; males, CES 10%) was 547 mg/kg bw. The “Serum LH, CED-L” value (Sprague-Dawley rats [1]; males, CES 10%) was 309 mg/kg bw, the FSH (Sprague-Dawley rats [1]; males, total dose 3 mg/kg bw) was 8.23 ng/mL and the LH (Sprague-Dawley rats [1]; males, total dose 3 mg/kg bw) was 1.23 ng/mL. The Testosterone (Sprague-Dawley rats [1]; males, total dose 3 mg/kg bw) was 2.35 ng/mL, the FSH (Sprague-Dawley rats [1]; males, total dose 10 mg/kg bw) was 8.54 ng/mL and the LH (Sprague-Dawley rats [1]; males, total dose 10 mg/kg bw) was 0.91 ng/mL. The Testosterone (Sprague-Dawley rats [1]; males, total dose 10 mg/kg bw) was 2.66 ng/mL, the FSH (Sprague-Dawley rats [1]; males, total dose 30 mg/kg bw) was 7.44 ng/mL and the LH (Sprague-Dawley rats [1]; males, total dose 30 mg/kg bw) was 0.99 ng/mL. For the same molecule, the Testosterone (Sprague-Dawley rats [1]; males, total dose 30 mg/kg bw) was 1.92 ng/mL, the FSH (Sprague-Dawley rats [1]; males, total dose 100 mg/kg bw) was 7.88 ng/mL and the LH (Sprague-Dawley rats [1]; males, total dose 100 mg/kg bw) was 0.84 ng/mL. The Testosterone (Sprague-Dawley rats [1]; males, total dose 100 mg/kg bw) was 3.21 ng/mL, the FSH (Sprague-Dawley rats [1]; males, total dose 300 mg/kg bw) was 7.66 ng/mL and the LH (Sprague-Dawley rats [1]; males, total dose 300 mg/kg bw) was 1.03 ng/mL. It also gave a Testosterone (Sprague-Dawley rats [1]; males, total dose 300 mg/kg bw) of 2.04 ng/mL, an FSH (Sprague-Dawley rats [1]; [9]) of 7.49 ng/mL and an LH (Sprague-Dawley rats [1]; [9]) of 0.77 ng/mL. It also gave a Testosterone (Sprague-Dawley rats [1]; [9]) of 2.18 ng/mL, an FSH (Sprague-Dawley rats [1]; [10]) of 6.49 ng/mL and an LH (Sprague-Dawley rats [1]; [10]) of 0.75 ng/mL. The Testosterone (Sprague-Dawley rats [1]; [10]) was 1.85 ng/mL, the Body weight (Sprague-Dawley rats [2]; females, total dose 3 mg/kg bw) was 215 g and the Body weight (Sprague-Dawley rats [2]; [3]) was 210 g. For the same molecule, the Body weight (Sprague-Dawley rats [2]; [4]) was 213 g, the Body weight (Sprague-Dawley rats [2]; [5]) was 211 g and the Body weight (Sprague-Dawley rats [2]; [6]) was 212 g. The Body weight (Sprague-Dawley rats [2]; [7]) was 213 g, the Body weight (Sprague-Dawley rats [2]; [8]) was 208 g and the Body weight (Sprague-Dawley rats [2]; males, total dose 3 mg/kg bw) was 306 g. For the same molecule, the Body weight (Sprague-Dawley rats [2]; males, total dose 10 mg/kg bw) was 321 g, the Body weight (Sprague-Dawley rats [2]; males, total dose 30 mg/kg bw) was 324 g and the Body weight (Sprague-Dawley rats [2]; males, total dose 100 mg/kg bw) was 322 g. For the same molecule, the Body weight (Sprague-Dawley rats [2]; males, total dose 300 mg/kg bw) was 325 g, the Body weight (Sprague-Dawley rats [2]; [9]) was 315 g and the Body weight (Sprague-Dawley rats [2]; [10]) was 310 g.
